In series [1] the test system is 2-DeoxyGlucose phosphorylation in murine SDH-WT cells. The experiment in a line: 2 DG phosphorylation assay. Format: cell-based. Conditions: Mus musculus, 0.25 h, 15 min, LC-MS. As to the method:
IC50 of compound 145 and GluT1 inhibitor […] in a 2 DG phosphorylation assay was done using murine SDH-WT cells. The cells were treated for 15 min with the indicated compound at different concentrations in the presence of 2 DG. 2 DG phosphorylation was determined by LC-MS analysis and the inhibition IC50 was determined by Prism software.

Series [2] relates to UOK269-WT (re-expression of SDHB). The experiment in a line: Cell viability in SDH-deficient/proficient isogenic pairs. Conditions: Homo sapiens, tumor-derived, 72 hours. Format: cell-based, Human. As for the experimental part:
(§1) The cells were grown in DMEM F12 supplemented with 1 mM Glutamine+3% FBS were treated with different concentrations of the indicated compounds. Cell viability was determined 72 hours later by CellTiter Glue reagent (Promega), the luminescence was measured with ClarioStar reader (BMG) and the EC50s were calculated by Prism. Murine SDHB-WT/KO, HRAS transformed isogenic pair (FIG. 12A); UOK269, Human Tumor-derived SDHB-deficient RCC in their WT counterpart with re-expression of SDHB (FIG. 12B); and ACHN, RCC cells, and their SDHB-KO (SDHB CRISPRed out) isogenic cells (FIG. 12C).

For series [3], the system named is UOK269 (SDHB-def.) RCC. The description is as above. It counts as cell-based, Human. Conditions: Homo sapiens, tumor-derived, 72 hours. As to the method:
as §1

For series [4], the system named is ACHN SDHB −/− (SDHB CRISPRed out). The series is described as above. Format: cell-based. Conditions: Homo sapiens, cancer cells, 72 hours. As for the experimental part: as §1
Series [5] concerns ACHN WT, RCC cells. The series is described as above. It counts as cell-based. Conditions: Homo sapiens, cancer cells, 72 hours. As for the experimental part: as §1
Series [6] relates to SDH-WT cells. The experiment in a line: Cellular / differential toxicity assay (CellTiter-Glo, 3 days). Format: cell-based, murine. Conditions: Mus musculus, 72 h. The essentials:
(§2)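 Isogenic SDHB-deficient (HRAS-transformed SDH-KO) and SDH-WT cells grown in DMEM-F12 with 1 mM glutamine and 3% FBS, plated with compound (10-point dilution from 10 uM to 0.0065 uM or lower) for 3 days at 37 °C, 5% CO2. Viability by CellTiter-Glo luminescence; EC50 calculated.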
In general terms: Cellular ATP, detected with luciferase, serves as a proxy for viable cell number.

Series [7] has as its system SDH-KO-HRAS cells (SDHB-deficient). The series is described as above. Conditions: for EC50: Mus musculus, 72 h; for differential toxicity, SDH-KO cells compared to SDH-WT cells: viability EC50s, Example 6. Format: cell-based, murine. The essentials:
as §2

In series [8] the test system is m+3 lactate secretion (glycolysis) in SDH-WT cells. Kind of series: Glycolysis inhibition (IC50 Lactate m+3). Format: cell-based. Conditions: 1 h, 25 mM 13C-glucose, one hour. As for the experimental part:
(§3) Glycolysis Inhibition (IC50 Lactate m+3)
(§4) Cell were plated in DMEM, 25 mM Glucose, 1 mM Pyruvate, 1 mM Glutamine and 10% Dialyzed serum in 96 well plates in triplicates. The day after the medium was replaced to fresh medium with 25 mM ^13C-glucose and treated with different concentrations of the compounds as indicated. One hour later the medium was collected and the level of m+3 lactate was determined by LC-MS. The IC50 of inhibition of m+3 lactate secretion into the medium was calculated with Prism.

For series [9], the system named is m+3 lactate secretion (glycolysis) in SDH-KO cells. The experiment in a line: Glycolysis inhibition (IC50 Lactate m+3). It counts as cell-based. As to conditions: 1 h, 25 mM 13C-glucose, one hour. As for the experimental part: as §3, §4
A short description of series [10]: PK profile (plasma and brain concentration). It counts as in vivo. As for the experimental part:
FIG. 14 describes the pharmacokinetics of compound 332.
FIG. 14A depicts the Mean Plasma Concentration of Compound 332 after IP7, IV bolus1 and PO2 Dosing. FIG. 14B depicts the Mean Brain Concentration of Compound 332 after IP Dosing at 2.50 mg/kg and FIG. 14C depicts the Mean Brain Concentration of Compound 332 after IV bolus Dosing at 2.50 mg/kg.

Setting [11] is: toxicity, SDH-WT cells, 3 days, CellTiter-Glo, read-out: EC50 (uM) SDH-WT.
Setting [12] is: toxicity, SDH-KO cells, 3 days, CellTiter-Glo, read-out: EC50 (uM) SDH-KO-HTAS-C17.

Like-named read-outs stand apart in the source and are kept apart here.

Data on 12 molecules can be found in US20230084927A1, “GLUCOSE UPTAKE INHIBITORS AND USES THEREOF” (METABOMED LTD., priority 2019, published 2023).

On to `Cc1c(NC(=O)c2cc(C(N)=O)nc3cc(F)ccc23)c(C(F)(F)F)nn1Cc1ccc(C#N)cc1` [BAY-876, reference compound], for which, in [1], the IC50 (in general, the point on the concentration scale where inhibition reaches its midpoint) is 21.6 nM. Also, the EC50 (as a rule, the concentration needed to bring the measured effect to its halfway point) came out at 5300 nM in series [2]; 15 nM in [3]; 256 nM in series [4]; 24200 nM in series [5]; 0.134 µM in series [6] (Murine SDH-WT, transformed, 72 hours, Example 8, read-out: EC50); 0.95 nM in [7] (Murine SDH-KO, transformed, 72 hours, Example 8, read-out: EC50).

On to `COCc1c2c(nc3sc4c(NCCc5ccc6[nH]cnc6c5)ncnc4c13)CC(C)(C)OC2` [Compound 308, N-(2-(1H-Benzo[d]imidazol-5-yl)ethyl)-11-(methoxymethyl)-8,8-dimethyl-7,10-dihydro-8H-pyrano[3″,4″:5′,6′]pyrido[3′,2′:4,5]thieno[3,2-d]pyrimidin-4-amine], for which the figures for the IC50 in series [8] and in series [9] were 0.15 nM and 0.03 nM, respectively. Also, the EC50 was 2.17 µM in series [6] (SDH-WT cells, 72 hours, Example 7, read-out: EC50 Tox); 1 to 3 µM in series [6] (setting [11]); 0.004 nM in series [7] (SDH-KO cells, 72 hours, Example 7, read-out: EC50 Tox); less than 1000 nM in series [7] (setting [12]). The “differential effect between SDH-WT and KO cells (EC50 Tox)” value in series [7] (cell viability, Example 7) is reported as > 500,000 folds.

As to `CC1(C)Cc2nc3sc4c(NCCc5ccc6[nH]cnc6c5)ncnc4c3c(COC3CCOCC3)c2CO1` [Compound 324, N-(2-(1H-Benzo[d]imidazol-5-yl)ethyl)-8,8-dimethyl-11-(((tetrahydro-2H-pyran-4-yl)oxy)methyl)-7,10-dihydro-8H-pyrano[3″,4″:5′,6′]pyrido[3′,2′:4,5]thieno[3,2-d]pyrimidin-4-amine], the EC50 in [6] (setting [11]) was less than 1 µM; in series [7] (setting [12]), less than 1000 nM.

In the case of `CC1(C)Cc2nc3sc4c(NCCc5ccc6[nH]cnc6c5)ncnc4c3c(COC3CCCCC3)c2CO1` [Compound 327, N-(2-(1H-Benzo[d]imidazol-5-yl)ethyl)-11-((cyclohexyloxy)methyl)-8,8-dimethyl-7,10-dihydro-8H-pyrano[3″,4″:5′,6′]pyrido[3′,2′:4,5]thieno[3,2-d]pyrimidin-4-amine], the results for the EC50 in series [6] (setting [11]) and in [7] (setting [12]) were less than 1 µM and less than 1000 nM, respectively.

For `CN1CCC(OCc2c3c(nc4sc5c(NCCc6ccc7[nH]cnc7c6)ncnc5c24)CC(C)(C)OC3)CC1` [Compound 328, N-(2-(1H-Benzo[d]imidazol-5-yl)ethyl)-8,8-dimethyl-11-(((1-methylpiperidin-4-yl)oxy)methyl)-7,10-dihydro-8H-pyrano[3″,4″:5′,6′]pyrido[3′,2′:4,5]thieno[3,2-d]pyrimidin-4-amine], the results for the EC50 in series [6] (setting [11]) and in [7] (setting [12]) were 3 to 10 µM and 3000 to 10000 nM, respectively.

Consider `CC1(C)Cc2nc3oc4c(NCCc5ccc6[nH]cnc6c5)ncnc4c3cc2CO1` [Compound 329], for which the EC50 is less than 1 µM in series [6] (setting [11]) and less than 1000 nM in [7] (setting [12]).

As to `COCCOCCOCCOCCN(C)Cc1c2c(nc3sc4c(NCCc5ccc6[nH]cnc6c5)ncnc4c13)CC(C)(C)OC2` [Compound 330, N-(2-(1H-Benzo[d]imidazol-5-yl)ethyl)-8,8-dimethyl-11-(2-methyl-5,8,11,14-tetraoxa-2-azapentadecyl)-7,10-dihydro-8H-pyrano[3″,4″:5′,6′]pyrido[3′,2′:4,5]thieno[3,2-d]pyrimidin-4-amine], the EC50 in [6] (setting [11]) is 3 to 10 µM; in series [7] (setting [12]), less than 1000 nM. In series [7] (72 hours), the “differential toxicity, SDH-KO cells compared to SDH-WT cells” value (from here on “differential toxicity, SDH-KO cells”) is greater than 56.

Regarding `COCCOCCOCCN(C)Cc1c2c(nc3sc4c(NCCc5ccc6[nH]cnc6c5)ncnc4c13)CC(C)(C)OC2` [Compound 331, N-(2-(1H-Benzo[d]imidazol-5-yl)ethyl)-8,8-dimethyl-11-(2-methyl-5,8,11-trioxa-2-azadodecyl)-7,10-dihydro-8H-pyrano[3″,4″:5′,6′]pyrido[3′,2′:4,5]thieno[3,2-d]pyrimidin-4-amine], the EC50 is 3 to 10 µM in [6] (setting [11]) and less than 1000 nM in series [7] (setting [12]). For the same molecule, in series [7] (72 hours), the “differential toxicity, SDH-KO cells” value is greater than 42.

Consider `COCCOCc1c2c(nc3sc4c(NCCc5ccc6[nH]cnc6c5)ncnc4c13)CC(C)(C)OC2` [Compound 332], for which the oral bioavailability entry in series [10] (PO dosing vs IV bolus, plasma) is listed as “low”. The brain penetration result in series [10] (brain concentration after IP and IV bolus dosing at 2.50 mg/kg) is on record as “brain penetrant”. For the same molecule, the results for the EC50 in series [6] (setting [11]) and in series [7] (setting [12]) were 1 to 3 µM and less than 1000 nM, respectively. Moreover, in [7] (72 hours), the “differential toxicity, SDH-KO cells” value is listed as 235.

In the case of `CC1(C)Cc2nc3sc4c(NCCc5ccc6[nH]cnc6c5)ncnc4c3c(COC3CCCC3)c2CO1` [Compound 333], the values for the EC50 in series [6] (setting [11]) and in series [7] (setting [12]) were 1 to 3 µM and less than 1000 nM, respectively.

On to `CN(C)Cc1c2c(nc3sc4c(NCCc5ccc6[nH]cnc6c5)ncnc4c13)CC(C)(C)OC2` [Compound 334], for which the EC50 in [6] (setting [11]) was 3 to 10 µM; in [7] (setting [12]) it was less than 1000 nM.

As for `COCCCCc1c2c(nc3sc4c(NCCc5ccc6[nH]cnc6c5)ncnc4c13)CC(C)(C)OC2` [Compound 335], the 50% effective concentration (EC50) in [6] (setting [11]) was 3 to 10 µM; in [7] (setting [12]), less than 1000 nM.
